Calls of active or inactive are those of the source. No cut-off for these calls is given here.
How the values were obtained:
[1] = test system: HeLa; test: Induction of mitophagy in human HeLa cells assessed as colocalization of mitochondria and lysosomes at 0.5 uM by mitoGFP staining based confocal microscopy analysis; assay type: functional, cell-based
[2] = test system: HCC827; test: Induction of ROS generation in human HCC827 cells at 1 uM incubated for 4 hrs in presence of VC by DCFH-DA staining based by absorbance based laser confocal microscopic analysis; assay type: functional, cell-based
[3] = test system: HCC827; test: Induction of apoptosis in human HCC827 cells assessed as late apoptotic cells at 1 uM measured after 48 hrs by annexin V and PI staining based flow cytometry analysis (reference value: 1.29%); assay type: functional
[4] = test system: Mitochondrial membrane; test: Induction of mitochondrial membrane depolarization in human HCC827 cells assessed as decrease in red fluorescence at 0.125 to 0.5 uM incubated for 4 hrs by JC-1 staining based confocal microscopy analysis; assay type: cell membranes; settings: dose 0.125-0.5 µM
[5] = test system: A-375; test: Antiproliferative activity against human A-375 cells assessed as inhibition of cell growth measured after 72 hrs by MTT assay; assay type: functional, cell-based; settings: A-375, 72 h
[6] = test system: HCC827; test: Induction of apoptosis in human HCC827 cells assessed as late apoptotic cells at 1 uM measured after 24 hrs by annexin V and PI staining based flow cytometry analysis (reference value: 2.18%); assay type: functional
[7] = test system: HCC827; test: Downregulation of TIMM23 expression level in human HCC827 cells incubated for 24 hrs by Western blot analysis; assay type: functional, cell-based; settings: dose 0.25-0.5 µM
[8] = test system: HEK-293T; test: Inhibition of colony formation in HEK293T cells at 0.05 to 0.1 uM incubated for 72 hrs by crystal violet staining based analysis; assay type: functional, cell-based; settings: Homo sapiens, dose 0.05-0.1 µM
[9] = test system: HCC827; test: Antiproliferative activity against human HCC827 cells assessed as increase in cell viability at 1 uM measured after 48 hrs in presence of Rapa by MTT assay; assay type: functional, cell-based
[10] = test system: HCC827; test: Downregulation of SDHB expression in human HCC827 cells at 0.25 uM by Western blot analysis; assay type: functional, cell-based; settings: time <= 24.0 hrs
[11] = Toxicity in female Kunming mouse assessed as change in body weight at 70 mg/kg, ip measured every two days for 7 days; assay type: organism-based; settings: in vivo, 168 h, time 7 day
[12] = test system: HCC827; test: Induction of cell cycle arrest in human HCC827 cells assessed as accumulation of cells at G1 phase at 0.2 uM incubated for 24 hrs by PI staining based flow cytometry analysis (reference value: 66.44%); assay type: functional
[13] = test system: HCC827; test: Downregulation of TOMM20 expression level in human HCC827 cells at 0.5 uM incubated for 24 hrs in presence of Baf A1 by Western blot analysis; assay type: functional, cell-based
[14] = test system: HCC827; test: Induction of apoptosis in human HCC827 cells assessed as necrotic cells at 1 uM measured after 48 hrs by annexin V and PI staining based flow cytometry analysis (reference value: 1.18%); assay type: functional
[15] = test system: HCC827; test: Induction of apoptosis in human HCC827 cells assessed as late apoptotic cells at 0.25 uM measured after 48 hrs by annexin V and PI staining based flow cytometry analysis (reference value: 1.29%); assay type: functional
[16] = test system: HCC827; test: Inhibition of colony formation in human HCC827 cells incubated for 72 hrs by crystal violet staining based analysis; assay type: functional, cell-based; settings: dose 50-100 nM
[17] = test system: HCC827; test: Antiproliferative activity against human HCC827 cells assessed as cell viability at 1 uM measured after 48 hrs in presence of SAS by MTT assay relative to control; assay type: functional; settings: read-out: Activity
[18] = test system: HCC827; test: Induction of ROS generation in human HCC827 cells at 1 uM incubated for 4 hrs in presence of NAC by DCFH-DA staining based by absorbance based laser confocal microscopic analysis; assay type: functional, cell-based
[19] = test system: HCC827; test: Induction of mitochondrial dysfunction in human HCC827 cells assessed as cytochrome C release in cytoplasm at 0.4 uM by laser scanning confocal fluorescence microscopic analysis; assay type: functional, cell-based; settings: time 24-72 hrs
[20] = test system: HCC827; test: Downregulation of VDAC1 expression level in human HCC827 cells 0.5 uM by Western blot analysis; assay type: functional, cell-based; settings: time 3-24 hrs
[21] = test system: HCC827; test: Induction of ROS generation in human HCC827 cells assessed as green fluorescence intensity at 1 uM incubated for 24 hrs by DCFH-DA staining based by absorbance based laser confocal microscopic analysis; assay type: functional, cell-based
[22] = test system: HCC827; test: Downregulation of […] protein level in human HCC827 cells at 0.25 to 0.5 uM measured after 12 hrs; assay type: functional, cell-based; settings: dose 0.25-0.5 µM
[23] = test system: HCC827; test: Induction of apoptosis in human HCC827 cells assessed as late apoptotic cells at 0.5 uM measured after 48 hrs by annexin V and PI staining based flow cytometry analysis (reference value: 1.29%; assay type: functional
[24] = test system: HCC827; test: Induction of apoptosis in human HCC827 cells assessed as viable cells at 1 uM measured after 36 hrs by annexin V and PI staining based flow cytometry analysis (reference value: 95.10%); assay type: functional; settings: read-out: Activity
[25] = test system: HCC827; test: Induction of cell cycle arrest in human HCC827 cells assessed as accumulation of cells at G1 phase at 0.4 uM incubated for 24 hrs by PI staining based flow cytometry analysis (reference value: 66.44%); assay type: functional
[26] = Toxicity in male Kunming mouse assessed as change in body weight at 70 mg/kg, ip measured every two days for 7 days; assay type: organism-based; settings: in vivo, 168 h, time 7 day
[27] = test system: HCC827; test: Induction of apoptosis in human HCC827 cells assessed as early apoptotic cells at 1 uM measured after 24 hrs by annexin V and PI staining based flow cytometry analysis (reference value: 1.80%); assay type: functional
[28] = test system: HCC827; test: Induction of mitochondrial dysfunction in human HCC827 cells assessed as appearance of disrupted cristae at 1 uM after 24 hrs by TEM analysis; assay type: functional, cell-based
[29] = test system: HCC827; test: Induction of cell cycle arrest in human HCC827 cells assessed as accumulation of cells at G1 phase incubated for 24 hrs by PI staining based flow cytometry analysis; assay type: functional; settings: dose 0.1-0.4 µM
[30] = test system: HCC827; test: Antiproliferative activity against human HCC827 cells assessed as increase in cell viability at 1 uM measured after 48 hrs in presence of 3-MA by MTT assay; assay type: functional, cell-based
[31] = Toxicity in female BALB/c mouse assessed as histopathological changes in heart at 30 mg/kg, ip measured for 7 days by H and E staining based analysis; assay type: organism-based; settings: in vivo, 168 h, time 7 day

**Q.** What does the source list for `Cc1ccc([P+](CCCCCCCCCCO)(c2ccc(C)cc2)c2ccc(C)cc2)cc1.[Br-]`?
**A.** Activity [1]: Active; Activity [2]: inactive; Activity [3]: 9.96%; Activity [4]: Active; IC50 [5]: 140 nM; Activity [6]: 3.84%; Activity [7]: Dose-dependent-effect; inhibition [8]: Minimal_effect; Activity [9]: inactive; Activity [10]: Time-dependent-effect; Activity [11]: Toxic; Activity [12]: 76.74%; Activity [13]: inactive; Activity [14]: 2.19%; Activity [15]: 3.3%; inhibition [16]: Dose-dependent-effect; viability at 1 µM [17]: 7.48%; Activity [18]: inactive; Activity [19]: Time-dependent-effect; Activity [20]: Time-dependent-effect; Activity [21]: Active; Activity [22]: Active; Activity [23]: 7.12%; viability at 1 µM [24]: 98.5%; Activity [25]: 85.66%; Activity [26]: Toxic; Activity [27]: 1.17%; Activity [28]: Active; Activity [29]: Dose-dependent-effect; Activity [30]: Active; Activity [31]: Non-toxic
